Source: patent US5935636A, “Trehalose and its production and use” (Kabushiki Kaisha Hayashibara Seibutsu Kagaku Kenkyujo, priority 1994, dated 1999)
Counter-ions that a name gives are not always drawn. Like-named read-outs stand apart in the source and are kept apart here.

Legend:
[1] = target: T1, maltose/trehalose conversion enzyme derived from Pimelobacter species R48 (Pimelobacter sp., UniProt P72235); test: Inhibition of enzymatic activity; type: biochemical
T1 construct: The culture obtained in Experiment 1 was centrifugally separated to collect the cells; made in house; host or cells: native producer Pimelobacter species R48 (FERM BP-4315), purified from disrupted cells
T1 sequence (P72235 1-573): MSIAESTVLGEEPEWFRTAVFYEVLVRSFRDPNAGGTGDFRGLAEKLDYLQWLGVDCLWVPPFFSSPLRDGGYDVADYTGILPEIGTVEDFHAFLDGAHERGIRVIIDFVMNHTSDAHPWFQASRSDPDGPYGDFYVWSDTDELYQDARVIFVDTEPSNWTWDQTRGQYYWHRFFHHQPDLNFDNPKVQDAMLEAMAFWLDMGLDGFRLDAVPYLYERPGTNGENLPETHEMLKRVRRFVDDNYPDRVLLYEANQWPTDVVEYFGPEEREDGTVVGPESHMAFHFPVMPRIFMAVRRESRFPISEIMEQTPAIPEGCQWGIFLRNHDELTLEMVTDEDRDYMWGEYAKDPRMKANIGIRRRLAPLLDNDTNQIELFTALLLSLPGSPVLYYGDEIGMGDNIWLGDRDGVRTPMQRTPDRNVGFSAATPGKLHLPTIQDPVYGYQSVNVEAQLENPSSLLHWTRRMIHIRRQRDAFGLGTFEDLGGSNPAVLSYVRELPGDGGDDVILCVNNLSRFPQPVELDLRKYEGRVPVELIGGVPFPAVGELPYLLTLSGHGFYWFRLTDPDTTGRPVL
Protocol: (§1) Maltose/trehalose conversion enzymes are assayed as follows: 1 ml of 20 w/v % maltose as substrate in 10 mM phosphate buffer (pH7.0) is added with 1 ml enzyme liquid, allowed to react at 25° C., 35° C. or 60° C. for 60 minutes and heated at 100° C. for 10 minutes to suspend the reaction. The reaction liquid is accurately diluted by 11-times in 50 mM phosphate buffer (pH7.5) and 0.4 ml of the diluted liquid is added with 0.1 ml of 1 unit/ml trehalase solution, incubated at 45° C. for 120 minutes and determined for glucose level by the glucose oxidase method. […] The amount of the trehalose formed by maltose/trehalose conversion enzyme is estimated with the increased amount of glucose as determined by the above measurement and one unit of the enzyme is defined as the amount of enzyme that forms one micromole of trehalose for one minute.
(§2) Effects of temperature and pH on the activity of the enzyme were investigated in accordance with the assay method. […] The thermal stability of the enzyme was determined by incubating the enzyme in 50 mM phosphate buffer (pH7.0) at different temperatures for 60 minutes, cooling with water and assaying the residual activities. While the pH stability was determined by incubating at 20° C. for 60 minutes in 50 mM phosphate buffer with different pH levels, adjusting to pH7.0 and assaying the residual enzyme activities.

[2] = tested on: maltose/trehalose conversion enzyme derived from Pseudomonas putida H262; type: biochemical
Protocol: as §1
as §2, with “35°” for “20°”

[3] = target: T2, maltose/trehalose conversion enzyme derived from Thermus aquaticus (ATCC33923) (Thermus thermophilus, UniProt O06458); test: Inhibition of enzymatic activity; type: biochemical
T2 construct: The culture obtained in Experiment 15 was centrifugally separated to collect the cells; made in house; host or cells: native producer Thermus aquaticus (ATCC33923), purified from disrupted cells
T2 sequence (O06458 1-963): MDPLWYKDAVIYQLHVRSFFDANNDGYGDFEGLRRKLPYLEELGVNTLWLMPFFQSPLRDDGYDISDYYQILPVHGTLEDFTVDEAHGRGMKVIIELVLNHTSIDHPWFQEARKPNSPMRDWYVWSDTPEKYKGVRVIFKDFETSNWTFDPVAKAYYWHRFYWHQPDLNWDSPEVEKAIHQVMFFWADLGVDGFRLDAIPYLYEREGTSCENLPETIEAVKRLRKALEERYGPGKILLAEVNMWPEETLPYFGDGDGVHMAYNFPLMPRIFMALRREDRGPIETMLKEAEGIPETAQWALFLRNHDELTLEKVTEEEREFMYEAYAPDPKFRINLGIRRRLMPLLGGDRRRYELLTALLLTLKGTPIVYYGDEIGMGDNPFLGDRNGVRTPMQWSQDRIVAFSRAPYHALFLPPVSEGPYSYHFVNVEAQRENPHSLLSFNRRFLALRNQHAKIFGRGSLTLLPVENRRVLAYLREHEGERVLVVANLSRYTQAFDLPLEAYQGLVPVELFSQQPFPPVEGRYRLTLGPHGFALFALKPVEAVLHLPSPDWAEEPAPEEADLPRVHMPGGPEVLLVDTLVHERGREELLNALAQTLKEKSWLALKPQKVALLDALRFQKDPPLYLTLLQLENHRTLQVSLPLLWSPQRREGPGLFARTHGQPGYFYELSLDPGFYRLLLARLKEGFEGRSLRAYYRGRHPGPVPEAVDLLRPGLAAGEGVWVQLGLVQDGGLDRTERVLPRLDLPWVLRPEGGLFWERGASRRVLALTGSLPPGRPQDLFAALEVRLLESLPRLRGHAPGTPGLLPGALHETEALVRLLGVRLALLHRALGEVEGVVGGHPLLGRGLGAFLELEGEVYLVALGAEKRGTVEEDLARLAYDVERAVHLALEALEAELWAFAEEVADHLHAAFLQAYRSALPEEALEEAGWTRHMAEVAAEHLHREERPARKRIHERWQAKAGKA
Protocol: as §1
as §2, with “60°” for “20°”

[4] = target: T3, purified maltose/trehalose conversion enzyme from Pimelobacter species R48 (Pimelobacter sp., UniProt P72235); test: Action on a variety of saccharides (substrate feasibility, TLC); type: biochemical; details: 20° C., pH7.0, 24 hours
T3 construct: The culture obtained in Experiment 1 was centrifugally separated to collect the cells; made in house; host or cells: native producer Pimelobacter species R48 (FERM BP-4315), purified from disrupted cells
T3 sequence (P72235 1-573): T1 sequence (P72235 1-573)
Protocol: (§3) A variety of saccharides were tested for feasibility as substrate.
(§4) Each solution was added with 2 units/g substrate solid of a purified maltose/trehalose conversion enzyme obtained by the method in Experiment 2, adjusted to give respective substrate concentrations of 5 w/v % and reacted at 20° C. and pH7.0 for 24 hours. Before and after the reaction the solutions were subjected to thin-layer chromatography (TLC) on "[…] 60", an aluminum plate, width and length of 20 cm respectively, commercialized by Merck & Co., Inc., New Jersey, USA, to check the enzymatic action on respective saccharides. TLC was developed at ambient temperature with a mixture solvent of 1-butanol, pyridine and water (6:4:1 by volume). Coloration was carried out by first spraying 20% sulfuric acid/methanol solution, then heating at 110° C. for 10 minutes.

[5] = tested on: purified enzyme from Pseudomonas putida H262; test: as above; type: biochemical; details: method of Experiment 4, reaction temperature 35° C.
Protocol: as §3, §4
A variety of saccharides were tested for feasibility as substrate for the purified enzyme from Pseudomonas putida H262 obtained in Experiment 10 in accordance with the method in Experiment 4 except that the reaction temperature was set to 35° C. As the result, like the enzyme from Pimelobacter species R48, the enzyme from Pseudomonas putida H262 acted on only maltose and trehalose to convert maltose to trehalose as well as to convert trehalose to maltose.

[6] = tested on: partially-purified enzymes derived from conventional microorganisms of the genus Thermus; test: Action on a variety of saccharides, partially-purified enzymes; type: biochemical; details: method of Experiment 18
Protocol: Among conventional microorganisms, the specified microorganisms which had been confirmed for production of the maltose/trehalose conversion enzyme according to the present invention were cultivated in flasks for 48 hours in accordance with the method in Experiment 15. Respective cultures were checked for enzymatic activity and then subjected to cell disrupter in accordance with the method in Experiment 16 and the supernatants were dialyzed to obtain partially-purified enzymes which were then investigated for properties in accordance with the method in Experiment 17.

[7] = Physicochemical properties of trehalose preparations: solubility; details: in 25° C. water
Protocol: A high-purity trehalose prepared by the method in Experiment 8 was tested for physicochemical properties. […] These physical values were in good agreement with those of a simultaneously tested commercially-available crystalline trehalose hydrate, a product of Wako Pure Chemical Industries, Ltd., Osaka, Japan.

[8] = Test for assimilation in vivo (blood sugar and insulin levels); details: healthy three men
Protocol: In accordance with the method reported by Atsuji et al., Rinsho Eiyo (Clinical Nutrition), Vol.41, No.2, pp.200-208 (1972), 30g of the high-purity trehalose, purity of 99.8%, prepared in Experiment 8 was prepared into 20 w/v % aqueous solution and orally administered to healthy three men, age of 26, 27 and 30 years, after which their bloods were periodically sampled and measured for blood sugar and insulin levels. Glucose was used as control. […] Thus the trehalose and saccharide containing the same are suitable as saccharide source for energy supplement.

mice = test: Acute toxicity test; type: in vivo; details: orally administered in mice, possible highest dose
Protocol: An acute toxicity test was conducted on a high-purity trehalose prepared in Example A-6, where it was orally administered in mice. As the result, trehalose was a low toxic substance causing no death even in the possible highest dose. Thus its LD50 would be briefly 50 g/kg or higher.

[9] = 30 g as 20 w/v % aqueous solution, oral

Row | Structure (SMILES) | Inhibition of activity ([1]; 1 mM) | Inhibition of activity ([2]; 1 mM) | Inhibition of activity ([3]; 1 mM) | action of the enzyme on saccharides (in words) [4] | action of the enzyme on saccharides (in words) [5] | action of the enzymes on saccharides (in words) [6] | other results
1 | [Cu+2] [Cu^2+] | Inhibited | Inhibited | Inhibited | – | – | – | Inhibition of activity ([3]; 1 mM, listed as C^2+): inhibited
2 | [Hg+2] [Hg^2+] | Inhibited | Inhibited | Inhibited | – | – | – | –
3 | OC[C@H]1O[C@H](O[C@H]2[C@H](O)[C@@H](O)[C@H](O)O[C@@H]2CO)[C@H](O)[C@@H](O)[C@@H]1O [Maltose] | – | – | – | acted on | acted on | acted on | –
4 | NC(CO)(CO)CO [Tris-HCl buffer, Tris-HCl] | – | – | – | – | – | – | Inhibition of activity [1]: Inhibited; Inhibition of activity [2]: Inhibited; Inhibition of activity [3]: Inhibited
5 | OC[C@H]1O[C@H](O[C@H]2O[C@H](CO)[C@@H](O)[C@H](O)[C@H]2O)[C@H](O)[C@@H](O)[C@@H]1O [trehalose, alpha,alpha-trehalose] | – | – | – | acted on | acted on | acted on | solubility as anhydrous substance [7]: 77.0 g; time at which blood sugar level reached maximum after administration [8, 9]: 0.5 to 1 h; time at which insulin level reached maximum after administration [8, 9]: 0.5 to 1 h; digestion, absorption and utilization (in words) ([8]; 30 g oral, glucose as control): readily digested and absorbed and then metabolized and utilized as energy source; death in acute toxicity test (mice): no death
